For 18 molecules, T/C results are on record in PubChem BioAssay AID248 (DTP/NCI, 2004).

Toxic doses and inconclusive results are not listed.

The test system of this test is L1210 leukemia ip in BDF1 mice, survival T/C. As to the kind of experiment: NCI In Vivo Anticancer Drug Screen. Data for tumor model L1210 Leukemia (intraperitoneal) in B6D2F1 (BDF1) mice. The note with it: endpoint: mean survival time, higher = longer survival. The essentials: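 Tumor was transplanted into mice, which were then dosed with test compound or vehicle alone. Survival was recorded for each group, and the treated figure was expressed relative to the control figure.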

Where [1] appears, read: dose: 10.0 mg/kg/injection, schedule: Q01DX009 (ip), vehicle: saline.
The mark [2] stands for this setting: dose: 50.0 mg/kg/injection, schedule: Q01DX001 (ip), vehicle: saline.
Where [3] appears, read: dose: 100.0 mg/kg/injection, schedule: Q01DX001 (ip), vehicle: carboxymethylcellulose (CMC).
Where [4] appears, read: dose: 50.0 mg/kg/injection, schedule: Q01DX009 (ip), vehicle: Klucel (hydroxypropylcellulose) (HPC).
The mark [5] stands for this setting: dose: 100.0 mg/kg/injection, schedule: Q01DX009 (ip), vehicle: Klucel (hydroxypropylcellulose) (HPC).
The mark [6] stands for this setting: dose: 100.0 mg/kg/injection, schedule: Q01DX009 (ip), vehicle: saline with Tween-80.
The mark [7] stands for this setting: dose: 100.0 mg/kg/injection, schedule: Q04DX003 (ip), vehicle: Klucel (hydroxypropylcellulose) (HPC).
[8] abbreviates: dose: 200.0 mg/kg/injection, schedule: Q01DX009 (ip), vehicle: Klucel (hydroxypropylcellulose) (HPC).
Where [9] appears, read: dose: 200.0 mg/kg/injection, schedule: Q01DX009 (ip), vehicle: saline with Tween-80.
The mark [10] stands for this setting: dose: 200.0 mg/kg/injection, schedule: Q04DX003 (ip), vehicle: Klucel (hydroxypropylcellulose) (HPC).
Setting [11] is: dose: 400.0 mg/kg/injection, schedule: Q04DX003 (ip), vehicle: Klucel (hydroxypropylcellulose) (HPC).

For `CCOc1cc(C=Nc2cc(Cl)c(O)c(Cl)c2)ccc1N(CCCl)CCCl`, the T/C was 114 % of control (dose: 5.0 mg/kg/injection, schedule: Q01DX009 (ip), vehicle: carboxymethylcellulose (CMC)); 105 % of control (dose: 5.0 mg/kg/injection, schedule: Q01DX009 (ip), vehicle: saline); 106 % of control under setting [1]; 120 % of control (dose: 13.0 mg/kg/injection, schedule: Q01DX009 (ip), vehicle: carboxymethylcellulose (CMC)); 109 % of control (dose: 25.0 mg/kg/injection, schedule: Q01DX001 (ip), vehicle: saline); 118 % of control (dose: 44.0 mg/kg/injection, schedule: Q01DX001 (ip), vehicle: carboxymethylcellulose (CMC)). Further, the T/C by setting is: (dose: 44.0 mg/kg/injection, schedule: Q01DX009 (ip), vehicle: other) 113 % of control; under setting [2], 116 % of control; under setting [3], 150 % of control.

Regarding `COc1c(O)c(O)cc2c[n+]3ccccc3c(C)c12`, the T/C under setting [4] was 95 % of control.

Consider `CS(=O)(=O)OCC(=O)COS(C)(=O)=O`, for which the T/C was 95 % of control (dose: 1.25 mg/kg/injection, schedule: Q01DX009 (ip), vehicle: saline); 93 % of control (dose: 2.5 mg/kg/injection, schedule: Q01DX009 (ip), vehicle: saline); 116 % of control under setting [1].

For the molecule `O=C(O)CCC(=O)c1cccc([N+](=O)[O-])c1`, the T/C is 103 % of control (dose: 50.0 mg/kg/injection, schedule: Q01DX009 (ip), vehicle: saline with Tween-80); 95 % of control under setting [5]; 107 % of control under setting [6]; 91 % of control under setting [7]; 103 % of control under setting [8]; 87 % of control under setting [9]. In addition, the T/C is 94 % of control under setting [10] and 94 % of control under setting [11].

With `CC1CC[N+]2(C)CCCC12` (stereo not drawn), the T/C (dose: 6.25 mg/kg/injection, schedule: Q01DX009 (ip), vehicle: saline) is 100 % of control and the T/C (dose: 12.5 mg/kg/injection, schedule: Q01DX009 (ip), vehicle: saline) is 100 % of control.

In the case of `CCOC(=O)c1cnc(SC)[nH]c1=O`, the T/C runs as follows: under setting [2], 92 % of control; (dose: 100.0 mg/kg/injection, schedule: Q01DX001 (ip), vehicle: saline) 95 % of control; (dose: 200.0 mg/kg/injection, schedule: Q01DX001 (ip), vehicle: saline) 98 % of control; (dose: 400.0 mg/kg/injection, schedule: Q01DX001 (ip), vehicle: saline) 98 % of control.

Turning to `CC(C)CCC[C@@H](C)[C@H]1CC[C@H]2[C@@H]3CC=C4C(C)(C)C(=O)CC[C@]4(C)[C@H]3CC[C@]12C`, the T/C is 97 % of control (dose: 100.0 mg/kg/injection, schedule: Q01DX001 (sc), vehicle: steriod suspending solution); 98 % of control (dose: 200.0 mg/kg/injection, schedule: Q01DX001 (sc), vehicle: steriod suspending solution); 97 % of control (dose: 400.0 mg/kg/injection, schedule: Q01DX001 (sc), vehicle: steriod suspending solution).

For the molecule `COC(=O)C(CSCSC)NC(=O)Nc1ccccc1C` (stereo not drawn), the T/C under setting [6] is 102 % of control; the T/C under setting [9] is 90 % of control; the T/C (dose: 400.0 mg/kg/injection, schedule: Q01DX009 (ip), vehicle: saline with Tween-80) is 97 % of control.

On to `CCNC(=O)CC#N`, for which the T/C under setting [3] was 102 % of control; the T/C (dose: 200.0 mg/kg/injection, schedule: Q01DX001 (ip), vehicle: carboxymethylcellulose (CMC)) was 91 % of control; the T/C (dose: 400.0 mg/kg/injection, schedule: Q01DX001 (ip), vehicle: carboxymethylcellulose (CMC)) is 108 % of control.

On to `COc1ccc(OC)c(NC(=O)Nc2ccc(SC)cc2)c1`, for which the T/C under setting [5] was 96 % of control; the T/C under setting [8] is 90 % of control; the T/C (dose: 400.0 mg/kg/injection, schedule: Q01DX009 (ip), vehicle: Klucel (hydroxypropylcellulose) (HPC)) is 98 % of control.

Turning to `CC(C)CS.[Pb]`, the T/C reads like this: (dose: 100.0 mg/kg/injection, schedule: Q04DX002 (ip), vehicle: gum acacia) 93 % of control; (dose: 200.0 mg/kg/injection, schedule: Q04DX002 (ip), vehicle: gum acacia) 93 % of control; (dose: 400.0 mg/kg/injection, schedule: Q04DX002 (ip), vehicle: gum acacia) 89 % of control.

With `COc1ccccc1N1CCN(CCCC(=O)c2ccc(F)cc2)CC1`, the T/C is, setting by setting: (dose: 12.5 mg/kg/injection, schedule: Q01DX009 (ip), vehicle: Klucel (hydroxypropylcellulose) (HPC)) 96 % of control; (dose: 25.0 mg/kg/injection, schedule: Q01DX009 (ip), vehicle: Klucel (hydroxypropylcellulose) (HPC)) 105 % of control; (dose: 25.0 mg/kg/injection, schedule: Q04DX003 (ip), vehicle: Klucel (hydroxypropylcellulose) (HPC)) 108 % of control; under setting [4], 105 % of control; (dose: 50.0 mg/kg/injection, schedule: Q04DX003 (ip), vehicle: Klucel (hydroxypropylcellulose) (HPC)) 111 % of control; under setting [5], 122 % of control. Moreover, the T/C under setting [7] is 116 % of control and the T/C under setting [10] is 111 % of control.

In the case of `CC1(O)Cn2c(nc3nccnc32)S1` (stereo not drawn), the T/C (dose: 25.0 mg/kg/injection, schedule: Q01DX009 (ip), vehicle: saline) is 100 % of control; the T/C (dose: 50.0 mg/kg/injection, schedule: Q01DX009 (ip), vehicle: saline) was 96 % of control; the T/C (dose: 100.0 mg/kg/injection, schedule: Q01DX009 (ip), vehicle: saline) was 94 % of control; the T/C (dose: 100.0 mg/kg/injection, schedule: Q04DX003 (ip), vehicle: saline) was 100 % of control; the T/C (dose: 200.0 mg/kg/injection, schedule: Q04DX003 (ip), vehicle: saline) was 96 % of control.

For the molecule `CN(C)c1ncnc2c1c(Br)cn2C1OC(CO)C(O)C1O` (stereo not drawn), the T/C (dose: 5.0 mg/kg/injection, schedule: Q01DX001 (ip), vehicle: saline) was 101 % of control; the T/C (dose: 10.0 mg/kg/injection, schedule: Q01DX001 (ip), vehicle: saline) is 102 % of control; the T/C (dose: 20.0 mg/kg/injection, schedule: Q01DX001 (ip), vehicle: saline) is 104 % of control; the T/C (dose: 40.0 mg/kg/injection, schedule: Q01DX001 (ip), vehicle: saline) is 108 % of control.

On to `COC(=O)c1c(OC)ccc2c1CC1C3Nc4ccccc4C3CCN1C2` (stereo not drawn), for which the T/C runs as follows: under setting [7], 94 % of control; under setting [10], 90 % of control; under setting [11], 90 % of control.

Take `C(=N\N=C\c1c[nH]c2ccccc12)/c1c[nH]c2ccccc12`: the T/C (dose: 100.0 mg/kg/injection, schedule: Q01DX009 (ip), vehicle: gum acacia) was 87 % of control; the T/C (dose: 100.0 mg/kg/injection, schedule: Q04DX003 (ip), vehicle: gum acacia) is 92 % of control; the T/C (dose: 200.0 mg/kg/injection, schedule: Q01DX009 (ip), vehicle: gum acacia) is 87 % of control; the T/C (dose: 200.0 mg/kg/injection, schedule: Q04DX003 (ip), vehicle: gum acacia) is 89 % of control; the T/C (dose: 400.0 mg/kg/injection, schedule: Q01DX009 (ip), vehicle: gum acacia) was 86 % of control; the T/C (dose: 400.0 mg/kg/injection, schedule: Q04DX003 (ip), vehicle: gum acacia) is 89 % of control.

As to `C#CC1(OCC(O)CO)CCCCC1` (stereo not drawn), the T/C (dose: 25.0 mg/kg/injection, schedule: Q01DX009 (ip), vehicle: water) was 115 % of control; the T/C (dose: 50.0 mg/kg/injection, schedule: Q01DX009 (ip), vehicle: water) was 110 % of control; the T/C (dose: 100.0 mg/kg/injection, schedule: Q01DX009 (ip), vehicle: water) was 100 % of control; the T/C (dose: 200.0 mg/kg/injection, schedule: Q01DX009 (ip), vehicle: water) is 97 % of control.

Regarding `CCOC(=O)C(O)C(C#N)c1ccccc1` (stereo not drawn), the T/C runs as follows: (dose: 100.0 mg/kg/injection, schedule: Q01DX009 (ip), vehicle: other) 94 % of control; (dose: 100.0 mg/kg/injection, schedule: Q04DX003 (ip), vehicle: other) 118 % of control; (dose: 200.0 mg/kg/injection, schedule: Q01DX009 (ip), vehicle: other) 106 % of control; (dose: 200.0 mg/kg/injection, schedule: Q04DX003 (ip), vehicle: other) 101 % of control; (dose: 400.0 mg/kg/injection, schedule: Q01DX009 (ip), vehicle: other) 95 % of control; (dose: 400.0 mg/kg/injection, schedule: Q04DX003 (ip), vehicle: other) 105 % of control.
